Measurements as given in patent publication US10906977B2, “Enhancing the therapeutic activity of immune checkpoint inhibitor” (Maine Medical Center Research Institute, priority 2016, dated 2021).

Key:
[1] = system: chick chorioallantoic membrane (CAM); experiment: Chick CAM angiogenesis induced by soluble RGD collagen peptides; format: in vivo
Protocol: The chick chorioallantoic membrane (CAM) assays were carried out with some modifications (19). For all experiments CAMs of 10-day-old chick embryos obtained from Charles River (North Franklin, Conn.) were separated from the shell membrane. Filter discs either non-treated (inflammation assays) pretreated (angiogenesis assays) with cortisone acetate (3.0 mg/ml) containing RPMI only or FGF-2 (40 ng). CAMs were either non-treated or treated topically with Mab XL313, XL166 or a non-specific control antibody (10 μg/embryo every 24 h for three consecutive treatments). […] At the end of the incubation period the embryos were sacrificed and the CAM tissues were analyzed. Angiogenesis was quantified by counting the number of angiogenic branching blood vessels within the area of the filter disc. The angiogenic index was determined by subtracting the mean number of blood vessel branch points from untreated CAMs from each experimental condition. Eight to twelve embryos were used per condition and experiments were repeated at least three times.

P38MAPK [2] = experiment: Phosphorylated P38MAPK in HUVECs attached to collagen peptides (Western blot); format: cell-based, human; conditions: cells attached to peptide; FIG. 6D
Protocol: (§1) Endothelial cells (HUVECs or HRMVECs) were incubated in serum free media with 1 mM MgCl2, 0.2 mM MnCl2 in the presence of a Src inhibitor, PP2, (10 μM) a P38MAPK inhibitor, SB202190 (10 μM) or vehicle only (DMSO) for 10 min at 37° C. Treated cells were then seeded on to immobilized P-1 and P-2 and lysates were collected at 15 min.
(§2) Whole cell and CAM tissue lysates were collected in RIPA buffer supplemented with 1× protease inhibitor and 1× phosphatase inhibitor and were run on polyacrylamide gels using denaturing conditions. Prior to loading the gels, 6× sample buffer was added to each of the lysates (final concentration 1×) and boiled for five minutes. Twenty to 50 μg of total protein were loaded into each lane. […] Gels were run at 60 volts (v) until the dye front passed through the stacking gel, and then the voltage was increased to 100V for the remainder of the separation. Precision Plus protein standards (Bio-Rad) were used to visualize migration. Protein was transferred to nitrocellulose membranes using a wet tank system and blocked for 1 h using 10% non-fat dried milk in tris-buffered saline with 0.01% Tween-20 (TBS-T). […] Membranes were washed 3 times in TBS-T for five minutes. Blots were then incubated with HRP conjugated secondary antibodies (1:15000) in 1% non-fat milk in TBS-T for 1 h. […] Western blot bands were quantified using Image J software based on pixel intensity.

P38MAPK [3] = experiment: Phosphorylated P38MAPK in HRMVEC attached to collagen peptides (Western blot); format: cell-based, human; conditions: cells attached to peptide; FIG. 6E
Protocol: as §1, §2

β3-integrin = target: T1, β3-integrin (Homo sapiens, UniProt P05106+P06756); experiment: β3-integrin phosphorylation in endothelial cells attached to collagen peptides (Western blot); format: cell-based; conditions: absence of growth factors; FIG. 7C
T1 construct: endogenous in cells; host or cells: HUVEC
T1 sequence (P05106 27-788): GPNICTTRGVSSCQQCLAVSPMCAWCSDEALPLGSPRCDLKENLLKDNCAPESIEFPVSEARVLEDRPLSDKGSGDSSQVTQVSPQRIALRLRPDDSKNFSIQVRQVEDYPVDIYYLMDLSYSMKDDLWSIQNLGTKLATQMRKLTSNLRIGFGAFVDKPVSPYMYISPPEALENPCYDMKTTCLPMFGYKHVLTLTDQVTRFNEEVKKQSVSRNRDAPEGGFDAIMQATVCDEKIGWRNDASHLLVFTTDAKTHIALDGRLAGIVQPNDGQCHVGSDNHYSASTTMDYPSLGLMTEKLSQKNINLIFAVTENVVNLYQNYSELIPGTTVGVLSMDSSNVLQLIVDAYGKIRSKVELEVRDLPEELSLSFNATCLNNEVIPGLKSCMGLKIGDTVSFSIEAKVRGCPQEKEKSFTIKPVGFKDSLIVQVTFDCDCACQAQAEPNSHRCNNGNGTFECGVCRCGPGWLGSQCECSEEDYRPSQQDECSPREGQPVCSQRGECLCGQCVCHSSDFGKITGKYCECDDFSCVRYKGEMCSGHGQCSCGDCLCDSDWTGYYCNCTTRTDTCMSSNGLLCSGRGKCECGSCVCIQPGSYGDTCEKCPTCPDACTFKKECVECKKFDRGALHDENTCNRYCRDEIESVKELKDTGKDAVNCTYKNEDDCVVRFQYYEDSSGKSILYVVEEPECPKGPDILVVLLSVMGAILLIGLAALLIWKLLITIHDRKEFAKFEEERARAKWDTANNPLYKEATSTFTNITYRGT
T1 sequence (P06756 31-889 limits assumed): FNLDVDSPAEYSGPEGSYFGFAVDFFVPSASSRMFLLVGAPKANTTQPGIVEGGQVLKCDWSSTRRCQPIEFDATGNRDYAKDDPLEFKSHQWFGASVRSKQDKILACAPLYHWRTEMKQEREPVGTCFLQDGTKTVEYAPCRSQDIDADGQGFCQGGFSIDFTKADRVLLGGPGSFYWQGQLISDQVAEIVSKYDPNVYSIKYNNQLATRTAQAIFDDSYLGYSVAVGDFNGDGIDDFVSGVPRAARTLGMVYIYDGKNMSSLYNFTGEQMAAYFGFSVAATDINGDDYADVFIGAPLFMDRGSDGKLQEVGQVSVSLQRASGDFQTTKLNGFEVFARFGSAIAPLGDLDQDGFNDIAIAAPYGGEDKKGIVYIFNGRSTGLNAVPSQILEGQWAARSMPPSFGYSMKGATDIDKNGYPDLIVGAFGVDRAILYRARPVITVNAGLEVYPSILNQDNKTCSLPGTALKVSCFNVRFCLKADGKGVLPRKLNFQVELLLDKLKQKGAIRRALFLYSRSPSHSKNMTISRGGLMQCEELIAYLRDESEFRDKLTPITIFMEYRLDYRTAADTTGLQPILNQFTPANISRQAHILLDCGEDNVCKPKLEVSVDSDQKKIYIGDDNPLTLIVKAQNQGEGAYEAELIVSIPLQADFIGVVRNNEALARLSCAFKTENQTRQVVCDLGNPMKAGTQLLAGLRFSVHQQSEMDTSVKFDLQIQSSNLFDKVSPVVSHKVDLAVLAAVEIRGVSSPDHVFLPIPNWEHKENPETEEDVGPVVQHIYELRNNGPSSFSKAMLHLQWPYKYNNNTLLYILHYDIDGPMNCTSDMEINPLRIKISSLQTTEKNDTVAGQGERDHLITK
T1 sequence (P06756 891-1048 partner limits assumed): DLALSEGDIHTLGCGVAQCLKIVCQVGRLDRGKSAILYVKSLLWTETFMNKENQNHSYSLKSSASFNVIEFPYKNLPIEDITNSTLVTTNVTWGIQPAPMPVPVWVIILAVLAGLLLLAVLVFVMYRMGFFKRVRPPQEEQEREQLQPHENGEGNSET
Protocol: as §1, §2

[4] = system: endothelial cells (HUVECs); experiment: Actin stress fiber formation in endothelial cells attached to collagen peptides; format: cell-based, human; conditions: FIG. 7G
Protocol: CAMs examined for accumulation of granulation tissue were harvested, fixed in 4% PFA and paraffin embedded and sectioned (4 μm) and stained with Giemsa. CAM tissues analyzed via immunofluorescence were harvested, embedded with OCT, snap frozen and sectioned ([…]). Frozen sections were fixed in 50% methanol/50% acetone, air dried and blocked with 2.5% BSA for 1 h at 37° C. For expression of the XL313 and XL166 epitopes as well as monocyte/macrophages, FGF-2 stimulated CAM tissues were stained with Mabs XL313, XL166 (50 μg/ml) or KUL1 (1:250) and then incubated with Alexa-488 labeled secondary antibodies (1:2000 dilution). Co-staining of monocytes/macrophages and the Mab XL313 reactive epitope in FGF-2 stimulated CAMs was performed by sequential staining by first probing with KUL1 (1:250) and then with a biotinconjugated Mab XL313 (50 μg/ml), and with secondary antibodies Alexa-488 and streptavidin Alexa-594 (1:2000) respectively. Using a similar strategy, sections of RGD peptide-treated CAM tissues were analyzed for phosphorylated-P38MAPK in angiogenic vessels by co-incubation of anti-phospho-P38MAPK (1:50) and anti-vWf (1:500) antibodies. […] Cells were allowed to attach for 15, 30, or 60 min in the absence of serum and were fixed with 4% PFA. Fixed cells were washed and blocked with 2.5% BSA and stained with anti-YAP (1:200) and phalloidin (1:500). […]

PD-L1 = PD-L1 in control and β3 integrin knock down T-cells stimulated with peptide (western blot); format: cell-based, human; conditions: FIG. 33
Protocol: In order to confirm the functional role of integrin αvβ3 receptor in regulating the levels of the immune suppressive molecule PD-L1 by the XL313 cryptic collagen peptide P2, the expression of PD-L1 was examined in β3 integrin knock down and control transfected T-cells. Whole cell lysates from control transfected (Cont T-cells) and β3 integrin shRNA transfected T-cells (β3/KD) that were stimulated with control peptide (PC) or the XL313 cryptic collagen peptide (P2) were analyzed by western blot for expression of PD-L1.

T-cell (Jurkat) = experiment: T-cell migration on denatured collagen type-IV (transwell); format: cell-based, human; conditions: P2 1.0 ug/ml; FIG. 34
Protocol: Membranes of transwell migration chambers were coated with denatured collagen type-IV to mimic the altered basement membrane in tumor vessels. Left). T-cell (Jurkat) migration in the presence or absence of the cryptic collagen peptide P2 (1.0 ug/ml) and/or Mab XL313 and non-specific control antibody (50 μg/ml). Right). T-cell (Jurkat) migration in the presence or absence of Raw macrophage concentrated conditioned medium (CM) and/or Mab XL313 and non-specific control antibody (50 μg/ml). Data bars represent mean cell migration+SE from triplicate wells.

LAG3 = experiment: Checkpoint molecule expression in human T-cell lines stimulated with collagen peptides (Western blot); format: cell-based; conditions: Jurkat and CCL120.1; FIG. 35
Protocol: In order to confirm the functional ability of the XL313 cryptic collagen peptide P2 to regulate expression of the immune suppressive checkpoint molecule LAG3, αvβ3 expressing human T-cell lines Jurkat and CCL120.1 were stimulated with the cryptic collagen peptide P2 or control collagen peptides P1 or PC. Whole cell lysates from were analyzed for expression of PD-L1 and beta actin (β-Actin).

With CQGPRGDKGEC [Mab P-2] the “dose dependent induction of CAM angiogenesis” value ([1]; FIG. 5B) was “dose dependently enhanced angiogenesis”, the “dose of maximum induction of angiogenesis” value ([1]; FIG. 5B) was 100 ng/CAM and the “induction of CAM angiogenesis as compared to no treatment” value ([1]; soluble peptide, FIG. 5C) was “induced angiogenesis”. For the same sequence, the “phosphorylation of P38MAPK in HUVECs, as compared to P-1” value (P38MAPK [2]) was “enhanced phosphorylation of P38MAPK”, the “phosphorylation of P38MAPK in HRMVEC, as compared to P-1” value (P38MAPK [3]) was “enhanced phosphorylation of P38MAPK” and the “increase of β3 phosphorylation as compared to P-1” value (β3-integrin) was “over 3 fold”. For the same sequence, the “actin stress fiber formation as compared to P-1” value [4] was “accelerated actin stress fiber formation”, the “expression of PD-L1 in control transfected T-cells” value (PD-L1) was “enhanced expression of PD-L1” and the “expression of PD-L1 in β3 integrin knock down cells” value (PD-L1) was “little ability to enhance the expression of PD-L1”. For the same sequence, the “effect on T-cell migration” value (T-cell (Jurkat)) was “inhibitory effects”, the “expression of LAG3 in human T-cells” value (LAG3) was “induces expression of the immunosuppressive molecule LAG3” and the “levels of PD-L1 in stimulated T-cells as compared to controls” value (LAG3) was “clear increase in the levels of PD-L1”.
